For ten compounds, Ki results are on record in US6103766A, “Phenylsulfonamide-phenylethylamines useful as dopamine receptors” (Pharmacia & Upjohn Company, priority 1999, dated 2000).

One test addresses T1, dopamine D2 receptor (Rattus norvegicus, UniProt P61169).
T1 construct: expressed in transfected cells; host or cells: CHO-K1
Description: Competition binding at cloned rat dopamine D2 receptor (D2-DOP-CLONE) with [3H]-86170. Conditions: cloned rat receptor in CHO-K1 cells, [3H]-86170 (62 Ci/mmol, 2 nM), eleven dilutions, read-out: Ki (Receptor binding, IC50 values). The procedure:
(§1) Competition binding experiments employed eleven dilutions of test compounds of Formula I competing with [^3 H]-5-(dipropylamino)-5,6-dihydro-4H-imidazo(4,5,1-ij)quinolin-2(1H)-one (R-enantiomer) ("86170") (62 Ci/mmol, 2nM) and [^3 H]-spiperone ("SPI") (107 Ci/mmol, 0.5 nM) for D2 and D3 binding sites, respectively. (Lahti, R. A., Eur. J. Pharmacol., 202, 289 (1991)) In each experiment, cloned rat receptors expressed in CHO-K1 cells were used. (Chio, C. L., Nature, 343, 266 (1990); and Huff, R. M., Mol. Pharmacol. 45, 51-60 (1993)).

Another test has as its target T2, dopamine D3 receptor (Rattus norvegicus, UniProt P19020).
T2 construct: expressed in transfected cells; host or cells: CHO-K1
Description: Competition binding at cloned rat dopamine D3 receptor (D3-DOP-CLONE) with [3H]-spiperone. As to conditions: cloned rat receptor in CHO-K1 cells, [3H]-spiperone (107 Ci/mmol, 0.5 nM), eleven dilutions. The procedure: as §1

Setting [1] is: Ki (Receptor binding, IC50 values).
Setting [2] is: read-out: Ki (Receptor binding, IC50 values).

Where “and” joins values, the source holds several entries; their conditions need not be identical. Equal values may be shown once. Read-outs that look alike come from different tables or passages of the source.

T2 sequence (P19020 whole entry): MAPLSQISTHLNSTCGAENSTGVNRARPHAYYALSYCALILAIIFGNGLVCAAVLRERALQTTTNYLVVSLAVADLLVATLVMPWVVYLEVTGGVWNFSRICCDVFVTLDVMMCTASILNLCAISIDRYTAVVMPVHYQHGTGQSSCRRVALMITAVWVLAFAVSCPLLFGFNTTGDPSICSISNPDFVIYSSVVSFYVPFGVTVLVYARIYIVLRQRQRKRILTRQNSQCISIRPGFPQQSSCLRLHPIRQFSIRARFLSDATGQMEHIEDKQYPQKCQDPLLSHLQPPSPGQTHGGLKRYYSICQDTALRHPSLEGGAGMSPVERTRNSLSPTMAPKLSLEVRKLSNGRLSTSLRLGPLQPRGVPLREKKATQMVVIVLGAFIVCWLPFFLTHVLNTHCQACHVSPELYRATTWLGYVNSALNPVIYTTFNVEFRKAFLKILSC
T1 sequence (P61169 whole entry): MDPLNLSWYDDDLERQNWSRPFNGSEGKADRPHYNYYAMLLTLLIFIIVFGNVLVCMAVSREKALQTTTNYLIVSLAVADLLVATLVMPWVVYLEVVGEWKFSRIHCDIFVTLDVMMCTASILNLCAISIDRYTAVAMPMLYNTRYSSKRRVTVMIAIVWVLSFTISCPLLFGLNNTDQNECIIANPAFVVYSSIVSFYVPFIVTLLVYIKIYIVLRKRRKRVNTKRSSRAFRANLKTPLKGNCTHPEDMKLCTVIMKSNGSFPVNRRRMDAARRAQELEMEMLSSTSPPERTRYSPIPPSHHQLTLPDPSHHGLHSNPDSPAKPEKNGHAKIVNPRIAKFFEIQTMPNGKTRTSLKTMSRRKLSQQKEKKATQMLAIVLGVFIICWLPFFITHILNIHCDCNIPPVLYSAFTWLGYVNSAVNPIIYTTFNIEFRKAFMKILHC

As a reminder, the Ki is the dissociation constant of the complex between target and ligand, obtained from inhibition or displacement. For the compound `CCCN(CCC)CCc1ccc(NS(=O)(=O)c2ccc(Cl)cc2)cc1` [Example 1, 2-[4-(4-chlorobenzenesulfonamido)phenyl]ethyl-1-dipropylamine], the Ki on dopamine D2 receptor stood at 629 nM; at dopamine D3 receptor (setting [1]) it was 3.7 nM.

As for `CCCNCCc1ccc(NS(=O)(=O)c2ccc(Br)cc2)cc1` [Example 7, 2-[4-(4-bromobenzenesulfonamido)phenyl]ethyl-propylamine], the Ki at dopamine D2 receptor stood at 623 nM; on dopamine D3 receptor (setting [1]), 14 nM.

For `CCCN(CCC)CCc1ccc(NS(=O)(=O)c2ccc(NC(C)=O)cc2)cc1` [Example 2, 2-[4-(4-acetamidobenzenesulfonamido)phenyl]ethyl-1-dipropylamine], the Ki at dopamine D2 receptor came out at 1070 nM; on dopamine D3 receptor (setting [2]), 34 nM.

In the case of `CCCNCCc1ccc(NS(=O)(=O)c2ccc(OC(F)(F)F)cc2)cc1` [Example 5, 2-[4-(4-trifluoromethoxybenzenesulfonamido)phenyl]ethyl-1-propylamine], the Ki on dopamine D2 receptor amounted to 2390 nM; on dopamine D3 receptor (setting [2]), 28 nM.

For `CCCNCCc1cccc(NS(=O)(=O)c2cccc(Cl)c2)c1` [Example 10, 2-[3-(3-chlorobenzenesulfonamido)phenyl]ethyl-1-propylamine], the Ki on dopamine D2 receptor worked out at 1080 nM; on dopamine D3 receptor (setting [2]), 111 nM.

Turning to `CCCNCCc1ccc(NS(=O)(=O)c2ccc(C(F)(F)F)cc2)cc1` [Example 8, 2-[4-[(4-trifluoromethyl)benzenesulfonamido]phenyl]ethyl-1-propylamine], the Ki at dopamine D2 receptor was 1530 nM; at dopamine D3 receptor (setting [2]) it was 33 nM.

For the compound `CCCNCCc1ccc(NS(=O)(=O)c2ccc(Cl)cc2Cl)cc1` [Example 3, 2-[4-(2,4-dichlorobenzenesulfonamido)phenyl]ethyl-1-propylamine], the Ki is 760 nM on dopamine D2 receptor; 14 nM and 26 nM at dopamine D3 receptor (setting [2]).

Consider `CCCNCCc1cccc(NS(=O)(=O)c2ccccc2F)c1` [Example 9, 2-[3-(2-fluorobenzenesulfonamido)phenyl]ethyl-1-propylamine], for which the Ki turned out to be 645 nM at dopamine D2 receptor and 54 nM on dopamine D3 receptor (setting [1]).

With `CCCNCCc1ccc(NS(=O)(=O)c2ccc(F)cc2Cl)cc1` [Example 6, 2-[4-(2-chloro-4-fluorobenzenesulfonamido)phenyl]ethyl-1-propylamine], the values for the Ki at dopamine D2 receptor and on dopamine D3 receptor (setting [2]) were 2180 nM and 165 nM, respectively.

As for `CCCNCCc1ccc(NS(=O)(=O)c2ccc(Cl)cc2)cc1` [Example 4, 2-[4-(4-chlorobenzenesulfonamido)phenyl]ethyl-1-propylamine], the Ki at dopamine D2 receptor is 677 nM; at dopamine D3 receptor (setting [1]) it was 18 nM.
